Reference: patent US20240252677A1, “ONE-COMPONENT DELIVERY SYSTEM FOR NUCLEIC ACIDS” (The Trustees of the University of Pennsylvania, priority 2021, published 2024)

What was measured:
[1] = system: liver; experiment: In vivo mRNA delivery, IVIS imaging of organs: liver; design: species or system mice; key to Organs with luminescence: liver: strong: Strong meant the luminescence intensity in that organ was relatively high, compared to other organs; weak: Weak meant the luminescence intensity in that organ was relatively low, compared to other organs; details: Table 17; mice, IVIS, 4-6 h after injection; intensity relative to other organs
Procedure: The exposure time was 1 min.
Tissue luminescence signal was measured on the IVIS imaging system using an exposure time of 60 seconds using medium binning (binning=8) to ensure that the signal obtained was within operative detection range. […] Bioluminescence imaging was performed as described above.
Tissue luminescence signal was measured on the IVIS imaging system using a certain exposure time (60, 30 or 15 seconds) and medium binning (binning=8) to ensure that the signal obtained was within operative detection range.

[2] = system: spleen; experiment: In vivo mRNA delivery, IVIS imaging of organs: spleen; design: species or system mice; key to Organs with luminescence: spleen: strong: Strong meant the luminescence intensity in that organ was relatively high, compared to other organs; weak: Weak meant the luminescence intensity in that organ was relatively low, compared to other organs; details: Table 17; mice, IVIS, 4-6 h after injection; intensity relative to other organs
[3] = Dimensions (size, PDI) of DNPs co-assembled from IAJDs and Luc-mRNA by DLS; assay type: physicochemical
Procedure, shortened: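 IAJDs (80 mg/mL ethanol stock) rapidly injected into Luc-mRNA (4.0 mg/mL stock) diluted in 10 mM acetate buffer pH 4.0, then vortexed 5 s. Size and polydispersity of resulting DNPs measured by DLS (633 nm laser, 175° detection) at 23 °C.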

[4] = pKa measurements of individual IAJD molecules by titration; assay type: physicochemical; details: ethanol saturated with NaCl, titrated with 0.1 M aqueous HCl; individual IAJD molecules, titration
Procedure, shortened: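 Compound dissolved at 1.5 mg/mL in NaCl-saturated ethanol and titrated with 0.1 M HCl in 7.5 μL steps, pH read by electrode after each addition. pKa taken from the half-equivalence point.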

[5] = Stability of DNPs by DLS after storage at 5° C.; assay type: physicochemical; design: key to Original size distribution type (DLS curve) / Size distribution type (DLS curve): U: DLS curve showed unimodal size distribution; B: DLS curve showed bimodal size distribution; M: DLS curve showed multimodal size distribution; details: for pH Sample: DNPs: IAJD 4.0 mg/mL + Luc-mRNA 0.1 mg/mL, injection in acetate buffer pH 4.00; for PDI / Size (d, nm) / Original size distribution type (DLS curve): IAJD 4.0 mg/mL + Luc-mRNA 0.1 mg/mL; for PDI / Size (d, nm): acetate buffer; for Original size distribution type (DLS curve): before storage, acetate buffer pH 4.00
Procedure, shortened: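 DNPs in acetate buffer sized by DLS after storage at 5 °C. Stability ranked Excellent, Good or Not stable according to retention, shrinkage or growth of original size and narrowing or broadening of size distribution.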

[6] = Table 16, DNPs from IAJD 4 mg/mL and Luc-mRNA 0.10 mg/mL by injection in acetate buffer (10 mM, pH 4.0)
[7] = Table 17, DNPs used in vivo, IAJD 4 mg/mL, Luc-mRNA 0.10 mg/mL, acetate pH 4.0

With `CCCCCCCCCCCCCCCCCCOc1cc(COC(=O)CCCN2CCN(CCO)CC2)cc(OCCCCCCCCCCC)c1` [IAJD 128, 3-(Octadecyloxy)-5-(undecyloxy)benzyl 4-(4-(2-hydroxyethyl)piperazin-1-yl)butanoate] the “Organs with luminescence: liver” value [1] was “liver (weak),”, the “Organs with luminescence: spleen” value [2] was “spleen (strong)” and the PDI [3, 6] was 0.381. The “Size (d, nm)” value [3, 6] was 291 nm, the PDI [3, 7] was 0.381 and the “Size (d, nm)” value [3, 7] was 291 nm. The pKa [4] was 6.68, the “pH Sample” value [5] was 4.40 and the “Size distribution type (DLS curve)” value ([5]; after 70 days at 5° C.) was “(B)”. The PDI ([5]; after 70 days at 5° C.) was 0.459, the “Size (d, nm)” value ([5]; after 70 days at 5° C.) was 210 nm and the “Original size distribution type (DLS curve)” value [5] was “(B)”.
With `CCCCCCCCCCCOc1cc(COC(=O)CCCN2CCN(CCO)CC2)cc(OCC(CC)CCCC)c1` (stereo not drawn) [IAJD 130, 3-((2-Ethylhexyl)oxy)-5-(undecyloxy)benzyl 4-(4-(2-hydroxyethyl)piperazin-1-yl)butanoate] the “Organs with luminescence: liver” value [1] was “liver (weak),”, the “Organs with luminescence: spleen” value [2] was “spleen (strong)” and the PDI [3, 6] was 0.271. For the same compound, the “Size (d, nm)” value [3, 6] was 172 nm, the PDI [3, 7] was 0.271 and the “Size (d, nm)” value [3, 7] was 172 nm. The pKa [4] was 6.62, the “pH Sample” value [5] was 4.50 and the “Size distribution type (DLS curve)” value ([5]; after 62 days at 5° C.) was “(U)”. The PDI ([5]; after 62 days at 5° C.) was 0.282, the “Size (d, nm)” value ([5]; after 62 days at 5° C.) was 149 nm and the “Original size distribution type (DLS curve)” value [5] was “(U)”.
For `CCCCCCCCCCCCCCCOc1cc(COC(=O)CCCN2CCN(C)CC2)cc(OCC(CC)CCCC)c1` (stereo not drawn) [IAJD 135, 3-((2-Ethylhexyl)oxy)-5-(pentadecyloxy)benzyl 4-(4-methylpiperazin-1-yl)butanoate], the “Organs with luminescence: liver” value [1] was “liver (strong),”, the “Organs with luminescence: spleen” value [2] was “spleen (weak)” and the PDI [3, 6] was 0.267. For the same compound, the “Size (d, nm)” value [3, 6] was 92 nm, the PDI [3, 7] was 0.267 and the “Size (d, nm)” value [3, 7] was 92 nm. The pKa [4] was 6.32, the “pH Sample” value [5] was 4.95 and the “Size distribution type (DLS curve)” value ([5]; after 27 days at 5° C.) was “(U)”. For the same compound, the PDI ([5]; after 27 days at 5° C.) was 0.278, the “Size (d, nm)” value ([5]; after 27 days at 5° C.) was 92 nm and the “Original size distribution type (DLS curve)” value [5] was “(U)”.
For `CCCCCCCCCCCCCCCOc1cc(COC(=O)CCCN2CCN(CCO)CC2)cc(OCC(CC)CCCC)c1` (stereo not drawn) [IAJD 136, 3-((2-Ethylhexyl)oxy)-5-(pentadecyloxy)benzyl 4-(4-(2-hydroxyethyl)piperazin-1-yl)butanoate], the “Organs with luminescence: liver” value [1] was “liver (weak),”, the “Organs with luminescence: spleen” value [2] was “spleen (strong)” and the PDI [3, 6] was 0.307. For the same compound, the “Size (d, nm)” value [3, 6] was 149 nm, the PDI [3, 7] was 0.307 and the “Size (d, nm)” value [3, 7] was 149 nm. For the same compound, the pKa [4] was 6.5, the “pH Sample” value [5] was 4.57 and the “Size distribution type (DLS curve)” value ([5]; after 27 days at 5° C.) was “(U)”. The PDI ([5]; after 27 days at 5° C.) was 0.296, the “Size (d, nm)” value ([5]; after 27 days at 5° C.) was 153 nm and the “Original size distribution type (DLS curve)” value [5] was “(U)”.
For `CCCCCCCCCCCCCCCOc1cc(COC(=O)CCCN2CCN(C)CC2)cc(OCCCCCCCCCC)c1` [IAJD 141, 3-(Decyloxy)-5-(pentadecyloxy)benzyl 4-(4-methylpiperazin-1-yl)butanoate], the “Organs with luminescence: liver” value [1] was “liver (strong),”, the “Organs with luminescence: spleen” value [2] was “spleen (strong)” and the PDI [3, 6] was 0.313. For the same compound, the “Size (d, nm)” value [3, 6] was 158 nm, the PDI [3, 7] was 0.313 and the “Size (d, nm)” value [3, 7] was 158 nm. For the same compound, the pKa [4] was 6.56, the “pH Sample” value [5] was 4.62 and the “Size distribution type (DLS curve)” value ([5]; after 27 days at 5° C.) was “(U)”. For the same compound, the PDI ([5]; after 27 days at 5° C.) was 0.286, the “Size (d, nm)” value ([5]; after 27 days at 5° C.) was 156 nm and the “Original size distribution type (DLS curve)” value [5] was “(U)”.
In the case of `CCCCCCCCCCCCCCCOc1cc(COC(=O)CCCN2CCN(CCO)CC2)cc(OCCCCCCCCCC)c1` [IAJD 142, 3-(Decyloxy)-5-(pentadecyloxy)benzyl 4-(4-(2-hydroxyethyl)piperazin-1-yl)butanoate], the “Organs with luminescence: liver” value [1] is reported as “liver (strong),”, the “Organs with luminescence: spleen” value [2] is reported as “spleen (strong)” and the PDI [3, 6] is reported as 0.293. The “Size (d, nm)” value [3, 6] was 230 nm, the PDI [3, 7] was 0.293 and the “Size (d, nm)” value [3, 7] was 230 nm. For the same compound, the pKa [4] was 6.69, the “pH Sample” value [5] was 4.52 and the “Size distribution type (DLS curve)” value ([5]; after 27 days at 5° C.) was “(U)”. For the same compound, the PDI ([5]; after 27 days at 5° C.) was 0.266, the “Size (d, nm)” value ([5]; after 27 days at 5° C.) was 214 nm and the “Original size distribution type (DLS curve)” value [5] was “(B)”.
With `CCCCCCCCCCCCCCCOc1cc(COC(=O)CCCN2CCN(C)CC2)cc(OCCCCCCCCCCCC)c1` [IAJD 143, 3-(Dodecyloxy)-5-(pentadecyloxy)benzyl 4-(4-methylpiperazin-1-yl)butanoate] the “Organs with luminescence: liver” value [1] was “liver (strong),”, the “Organs with luminescence: spleen” value [2] was “spleen (strong)” and the PDI [3, 6] was 0.270. The “Size (d, nm)” value [3, 6] was 169 nm, the PDI [3, 7] was 0.270 and the “Size (d, nm)” value [3, 7] was 169 nm. The pKa [4] was 6.33, the “pH Sample” value [5] was 4.48 and the “Size distribution type (DLS curve)” value ([5]; after 27 days at 5° C.) was “(U)”. The PDI ([5]; after 27 days at 5° C.) was 0.243, the “Size (d, nm)” value ([5]; after 27 days at 5° C.) was 166 nm and the “Original size distribution type (DLS curve)” value [5] was “(U)”.
With `CCCCCCCCCCCCCCCOc1cc(COC(=O)CCCN2CCN(CCO)CC2)cc(OCCCCCCCCCCCC)c1` [IAJD 144, 3-(Dodecyloxy)-5-(pentadecyloxy)benzyl 4-(4-(2-hydroxyethyl)piperazin-1-yl)butanoate] the “Organs with luminescence: liver” value [1] was “liver (weak),”, the “Organs with luminescence: spleen” value [2] was “spleen (strong)” and the PDI [3, 6] was 0.432. For the same compound, the “Size (d, nm)” value [3, 6] was 236 nm, the PDI [3, 7] was 0.432 and the “Size (d, nm)” value [3, 7] was 236 nm. For the same compound, the pKa [4] was 6.51, the “pH Sample” value [5] was 4.40 and the “Size distribution type (DLS curve)” value ([5]; after 27 days at 5° C.) was “(U)”. For the same compound, the PDI ([5]; after 27 days at 5° C.) was 0.276, the “Size (d, nm)” value ([5]; after 27 days at 5° C.) was 216 nm and the “Original size distribution type (DLS curve)” value [5] was “(B)”.
In the case of `CCCCCCCCCCCCCCCOc1cc(COC(=O)CCCN2CCN(C)CC2)cc(OCCCCCCCCCCCCC)c1` [IAJD 145, 3-(pentadecyloxy)-5-(tridecyloxy)benzyl 4-(4-methylpiperazin-1-yl)butanoate], the “Organs with luminescence: liver” value [1] is reported as “liver (weak),”, the “Organs with luminescence: spleen” value [2] is reported as “spleen (strong)” and the PDI [3, 6] is reported as 0.306. The “Size (d, nm)” value [3, 6] was 194 nm, the PDI [3, 7] was 0.306 and the “Size (d, nm)” value [3, 7] was 194 nm. For the same compound, the pKa [4] was 6.28, the “pH Sample” value [5] was 4.51 and the “Size distribution type (DLS curve)” value ([5]; after 27 days at 5° C.) was “(U)”. For the same compound, the PDI ([5]; after 27 days at 5° C.) was 0.330, the “Size (d, nm)” value ([5]; after 27 days at 5° C.) was 189 nm and the “Original size distribution type (DLS curve)” value [5] was “(U)”.
